Molecules are shown by their SMILES.

Assay [1] relates to HCT-116 (human colon) cells. In words: Cell-Titer Glo Cell Growth Inhibition Assay. In kind it is cell-based. The note with it: HCT-116 cells, 72 h incubation, CellTiter-Glo, read-out: HCT116 IC50. The method, then: A549-L (human lung), Colo 205 (human colon), HCT-116 (human colon), HT29 (human colon), MX-1 (human breast), SKOV3 (human ovary) and P388 (murine leukemia) cell lines were cultured in RPM11640 containing 10% fetal bovine serum at 37° C. in a 5% CO2 incubator. Cell lines were split into T75 flasks (Falcon #353136) two to three days prior to assay set up at density which yields approximately 70-80% confluency at time of harvest for assay. Cells were harvested using 0.25% trypsin with EDTA (Glibco/Invitrogen #25200-056), Cell counts were performed on cell suspensions using Trypan Blue exclusion staining, cells were then plated in 105 µL of culture media per well at the following densities in 96 well Costar #3916 black flat bottom plates: A549-L 500 cells/well, Colo205 500 cells/well, HCT-116 500 cells/well, HT29 500 cells/well, MX-1 500 cells/well, SKOV3 500 cells/well and P388 250 cells/well. All plates were placed at 5% CO2 37° C. overnight and then test compounds were added the following day. One plate of each cell type was treated with CellTiter-Glo (Promega #G7573) for a day 0 proliferation measurement and read as described below. The test compounds were prepared in clear U bottom polypropylene 96 well plates (Falcon #35-1190 with consecutive two fold dilutions. 9 uL of these dilutions was added into each well of the cell plates. The final concentration of DMSO in all wells was 0.15%. Cells were incubated at 37° C., 5% CO2 for 72 h. Following 72 h of incubation with compounds each plate was developed and read. CellTiter-Glo reagent was added to assay plates using a volume equivalent to the cell culture volume in the wells. Plates were shaken for approximately 2 min and incubated at rt for approximately 15 min and the chemiluminescent signal was read on the Victor V or Envison 2100 reader. […] Concentration of compound that inhibited 50% of cell growth (IC50) was analyzed by 4 or 6 parameter fit of data using XLfit, value of no cell addition was substracted from all samples for background.
(ATP-based viability assays read luminescence as a measure of living cells.)

The target of assay [2] is T1, PLK1 kinase domain (Homo sapiens, UniProt P53350).
T1 construct: made in house; host or cells: baculovirus infected T. ni cells
T1 sequence (P53350 21-346): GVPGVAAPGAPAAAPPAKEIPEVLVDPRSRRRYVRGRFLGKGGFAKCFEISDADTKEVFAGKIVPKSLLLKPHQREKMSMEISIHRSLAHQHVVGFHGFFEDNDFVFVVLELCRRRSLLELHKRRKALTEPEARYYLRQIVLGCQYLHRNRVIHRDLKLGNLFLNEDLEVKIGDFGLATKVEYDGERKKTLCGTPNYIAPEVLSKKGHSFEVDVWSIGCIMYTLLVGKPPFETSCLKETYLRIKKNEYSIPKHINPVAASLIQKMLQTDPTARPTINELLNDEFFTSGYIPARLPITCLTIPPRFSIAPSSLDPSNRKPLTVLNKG
The assay can be described thus: Assay for Inhibition of PLK1 (SPA, 33P-ATP). In kind it is biochemical. The following applies: 2 nM PLK1 kinase domain, 1 μM ATP, 22° C.; read-out: PLK1 pIC50 (converted). The method, then: A. Preparation of 6× N-Terminal His-Tagged PLK Kinase Domain
All procedures were performed at 4° C. Cells were lysed in 50 mM HEPES, 200 mM NaCl, 50 mM imidazole, 5% glycerol; pH 7.5. The homogenate was centrifuged at 14K rpm in a SLA-1500 rotor for 1 hr and the supernatant filtered through a 1.2 micron filter. The supernatant was loaded onto a Nickel chelating Sepharose (Amersham Pharmacia) column and washed with lysis buffer. Protein was eluted using 20%, 30% and 100% buffer B steps where buffer B was 50 mM HEPES, 200 mM NaCl, 300 mM imidazole, 5% glycerol; pH 7.5. Fractions containing PLK were determined by SDS-PAGE. Fractions containing PLK were diluted five-fold with 50 mM HEPES, 1 mM DTT, 5% glycerol; pH 7.5, then loaded on an SP Sepharose (Amersham Pharmacia) column. After washing the column with 50 mM HEPES, 1 mM DTT, 5% glycerol; pH 7.5, PLK was step eluted with 50 mM HEPES, 1 mM DTT, 500 mM NaCl; 5% glycerol; pH 7.5. PLK was concentrated using a 10 kDa molecular weight cutoff membrane and then loaded onto a Superdex 200 gel filtration (Amersham Pharmacia) column equilibrated in 25 mM HEPES, 1 mM DTT, 500 mM NaCl, 5% glycerol; pH 7.5. Fractions containing PLK were determined by SDS-PAGE. PLK was pooled, aliquoted and stored at −80° C. Samples were quality controlled using mass spectrometry, N-terminal sequencing and amino acid analysis.
B. Enzyme Activity +/− Inhibitors was Determined as Follows:
All measurements were obtained under conditions where signal production increased linearly with time and enzyme. Test compounds were added to white 384-well assay plates (0.1 μL for 10 μL and some 20 μL assays, 1 μL for some 20 μL assays) at variable known concentrations in 100% DMSO. DMSO (1-5% final, as appropriate) and EDTA (65 mM in reaction) were used as controls.
Reaction Mix (10 or 20 μL) was quickly added to each well immediately following addition of enzyme via automated liquid handlers and incubated 1-1.5 h at 22° C. The 20 μL enzymatic reactions were stopped with 50 μL of stop mix (50 mM EDTA, 4.0 mg/mL Streptavidin SPA beads in Standard Dulbecco's PBS (without Mg^2+ and Ca^2+), 50 μM ATP) per well. The 10 μL reactions were stopped with 10 μL of stop mix (50 mM EDTA, 3.0 mg/mL Streptavidin-coupled SPA Imaging Beads (“LeadSeeker”) in Standard Dulbecco's PBS (without Mg^2+ and Ca^2+), 50 μM ATP) per well. Plates were sealed with clear plastic seals, spun at 500×g for 1 min or settled overnight, and counted in Packard TopCount for 30 seconds/well (regular SPA) or imaged using a Viewlux imager (LeadSeeker SPA). Signal above background (EDTA controls) was converted to percent inhibition relative to that obtained in control (DMSO-only) wells.

With `C[C@@H](Oc1cc(-n2cnc3cc(-c4ccc(NCCCN5CCN(C)CC5)nc4)ccc32)sc1C(N)=O)c1ccccc1Cl` [Example 31, 3-{[(1R)-1-(2-chlorophenyl)ethyl]oxy}-5-[5-(6-{[3-(4-methyl-1-piperazinyl)propyl]amino}-3-pyridinyl)-1H-benzimidazol-1-yl]-2-thiophenecarboxamide], the IC50 in assay [1] was less than 500 nM; in assay [2], less than 100 nM.
With `C[C@@H](Oc1cc(-n2cnc3cc(-c4ccc(NCCN5CCOCC5)nc4)ccc32)sc1C(N)=O)c1ccccc1Cl` [Example 32, 3-{[(1R)-1-(2-chlorophenyl)ethyl]oxy}-5-[5-(6-{[2-(4-morpholinyl)ethyl]amino}-3-pyridinyl)-1H-benzimidazol-1-yl]-2-thiophenecarboxamide], the IC50 was less than 500 nM in assay [1] and less than 100 nM in assay [2].
As to `C[C@@H](Oc1cc(-n2cnc3cc(-c4ccc(N(C)CCCN(C)C)nc4)ccc32)sc1C(N)=O)c1ccccc1Cl` [Example 33, 3-{[(1R)-1-(2-chlorophenyl)ethyl]oxy}-5-(5-[6-[[3-(dimethylamino)propyl](methyl)amino]-3-pyridinyl]-1H-benzimidazol-1-yl)-2-thiophenecarboxamide], the IC50 in assay [1] is less than 500 nM; in assay [2], less than 100 nM.
Turning to `C[C@@H](Oc1cc(-n2cnc3cc(-c4ccc(NCCCN5CCN(C)CC5)nn4)ccc32)sc1C(N)=O)c1ccccc1Cl` [Example 34, 3-{[(1R)-1-(2-chlorophenyl)ethyl]oxy}-5-[5-(6-{[3-(4-methyl-1-piperazinyl)propyl]amino}-3-pyridazinyl)-1H-benzimidazol-1-yl]-2-thiophenecarboxamide], the IC50 in assay [1] is 500 to 1000 nM; in assay [2], less than 100 nM.

The values above are taken from patent US20100056525A1, “5- AND 6- SUBSTITUTED BENZIMIDAZOLE THIOPHENE COMPOUNDS” (priority 2006, published 2010).
